Values joined by “and” are separate entries in the source; they are usually repeats but may differ in a detail not shown here. Identical values can stand only once. Toxic doses and inconclusive results are not listed.

The test system of this assay is L1210 leukemia ip in BDF1 mice, survival T/C. The experiment in a line: NCI In Vivo Anticancer Drug Screen. Data for tumor model L1210 Leukemia (intraperitoneal) in B6D2F1 (BDF1) mice. The following applies: endpoint: mean survival time, higher = longer survival. A digest of the protocol: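 Tumor was transplanted into mice, which were then dosed with test compound or vehicle alone. Survival was recorded for each group, and the treated figure was expressed relative to the control figure.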

[1] abbreviates: dose: 50.0 mg/kg/injection, schedule: Q01DX009 (ip), vehicle: saline with Tween-80.
Setting [2] is: dose: 100.0 mg/kg/injection, schedule: Q04DX003 (ip), vehicle: saline with Tween-80.
[3] abbreviates: dose: 200.0 mg/kg/injection, schedule: Q04DX002 (ip), vehicle: saline with Tween-80.
Where [4] appears, read: dose: 200.0 mg/kg/injection, schedule: Q04DX003 (ip), vehicle: saline with Tween-80.
Setting [5] is: dose: 400.0 mg/kg/injection, schedule: Q04DX002 (ip), vehicle: saline with Tween-80.
Where [6] appears, read: dose: 400.0 mg/kg/injection, schedule: Q04DX003 (ip), vehicle: saline with Tween-80.
The mark [7] stands for this setting: dose: 100.0 mg/kg/injection, schedule: Q01DX009 (ip), vehicle: saline with Tween-80.
Setting [8] is: dose: 200.0 mg/kg/injection, schedule: Q01DX009 (ip), vehicle: saline with Tween-80.

Turning to `O=C(Nc1ccc(F)cc1)Nc1ccc(Cl)cc1[N+](=O)[O-]`, the T/C runs as follows: under setting [1], 94 % of control and 95 % of control; (dose: 100.0 mg/kg/injection, schedule: Q01DX001 (ip), vehicle: saline with Tween-80) 100 % of control; (dose: 100.0 mg/kg/injection, schedule: Q04DX002 (ip), vehicle: saline with Tween-80) 102 % of control and 92 % of control; under setting [2], 100 % of control; (dose: 200.0 mg/kg/injection, schedule: Q01DX001 (ip), vehicle: saline with Tween-80) 95 % of control; under setting [3], 95 % of control and 101 % of control. Further, the T/C reads like this: under setting [4], 97 % of control; (dose: 400.0 mg/kg/injection, schedule: Q01DX001 (ip), vehicle: saline with Tween-80) 92 % of control; under setting [5], 93 % of control and 98 % of control; under setting [6], 94 % of control.
With `S=C(Nc1ccccn1)Nc1ccccn1`, the T/C is, setting by setting: under setting [1], 96 % of control; (dose: 50.0 mg/kg/injection, schedule: Q04DX003 (ip), vehicle: Klucel (hydroxypropylcellulose) (HPC)) 94 % of control; (dose: 50.0 mg/kg/injection, schedule: Q04DX003 (ip), vehicle: saline with Tween-80) 96 % of control; (dose: 100.0 mg/kg/injection, schedule: Q01DX001 (ip), vehicle: carboxymethylcellulose (CMC)) 95 % of control; under setting [7], 103 % of control; under setting [2], 101 % of control. The T/C was 95 % of control (dose: 200.0 mg/kg/injection, schedule: Q01DX001 (ip), vehicle: carboxymethylcellulose (CMC)); 96 % of control under setting [8]; 87 % of control (dose: 200.0 mg/kg/injection, schedule: Q04DX003 (ip), vehicle: Klucel (hydroxypropylcellulose) (HPC)); 184 % of control under setting [4]; 92 % of control (dose: 400.0 mg/kg/injection, schedule: Q01DX001 (ip), vehicle: carboxymethylcellulose (CMC)).
For `c1c[nH]c(N=Nc2ccc(N=Nc3ncc[nH]3)cc2)n1`, the T/C under setting [1] was 100 % of control, the T/C under setting [7] was 94 % of control and the T/C under setting [8] is 94 % of control.
As for `CC1=CC(=O)OC(C)(C)C1`, the T/C is, setting by setting: (dose: 100.0 mg/kg/injection, schedule: Q04DX003 (ip), vehicle: saline) 97 % of control; (dose: 200.0 mg/kg/injection, schedule: Q04DX003 (ip), vehicle: saline) 96 % of control; (dose: 400.0 mg/kg/injection, schedule: Q04DX003 (ip), vehicle: saline) 99 % of control.
With `[O-][n+]1c(CN2CCCCC2)nc2cccc3c2c1-c1ccccc1-3`, the T/C reads like this: under setting [7], 97 % of control; under setting [2], 101 % of control; under setting [8], 100 % of control; under setting [4], 101 % of control; (dose: 400.0 mg/kg/injection, schedule: Q01DX009 (ip), vehicle: saline with Tween-80) 107 % of control; under setting [6], 100 % of control.
On to `Cc1nc(-c2ccc(N=Cc3ccc(N(CCOS(C)(=O)=O)CCOS(C)(=O)=O)cc3Cl)cc2)c(C)s1`, for which the T/C is, setting by setting: (dose: 12.5 mg/kg/injection, schedule: Q01DX009 (ip), vehicle: Klucel (hydroxypropylcellulose) (HPC)) 114 % of control; (dose: 25.0 mg/kg/injection, schedule: Q01DX009 (ip), vehicle: Klucel (hydroxypropylcellulose) (HPC)) 111 % of control.
For `CCC12CC3(C(=O)OC)OC1C(O)CN1CCc4c(n3c3cc(OC)ccc43)C12` (stereo unspecified), the T/C is 100 % of control (dose: 6.25 mg/kg/injection, schedule: Q04DX002 (ip), vehicle: saline with Tween-80); 107 % of control (dose: 12.5 mg/kg/injection, schedule: Q04DX002 (ip), vehicle: saline with Tween-80); 103 % of control (dose: 25.0 mg/kg/injection, schedule: Q04DX002 (ip), vehicle: saline with Tween-80); 100 % of control and 86 % of control (dose: 50.0 mg/kg/injection, schedule: Q04DX002 (ip), vehicle: saline with Tween-80); 89 % of control under setting [3]; 89 % of control under setting [5].

Source of the values: PubChem BioAssay AID248 (DTP/NCI, 2004).
